Literature values in patent US9125929B2, “Trauma therapy” (Hibernation Therapeutics, A KF LLC, priority 2006, dated 2015).

How the values were obtained:
[1] = 400 mg daily tablets
[2] = orally and/or intravenous, 10, 25, 50 and 100 mg/kg body weight
human NK(1) receptor = human NK(1) receptor (Homo sapiens, UniProt P25103); details: read-out: K(i) for the human NK(1) receptor
NK(2) receptor = target: T1, NK(2) receptor (Homo sapiens, UniProt P21452); details: NK(1) over NK(2)
T1 sequence (P21452 1-398): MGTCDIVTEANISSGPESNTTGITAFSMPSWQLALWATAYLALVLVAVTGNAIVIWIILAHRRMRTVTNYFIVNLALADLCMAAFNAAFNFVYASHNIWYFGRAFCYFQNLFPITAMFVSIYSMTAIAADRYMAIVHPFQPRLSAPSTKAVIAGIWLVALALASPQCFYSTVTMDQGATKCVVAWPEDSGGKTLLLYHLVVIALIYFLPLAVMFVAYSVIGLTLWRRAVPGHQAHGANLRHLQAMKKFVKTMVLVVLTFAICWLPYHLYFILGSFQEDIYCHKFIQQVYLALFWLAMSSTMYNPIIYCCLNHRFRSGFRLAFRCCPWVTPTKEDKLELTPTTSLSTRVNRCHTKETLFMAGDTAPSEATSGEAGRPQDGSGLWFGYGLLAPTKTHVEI

NK(3) receptor = target: T2, NK(3) receptor (Homo sapiens, UniProt P29371); details: NK(1) over NK(3)
T2 sequence (P29371 1-465): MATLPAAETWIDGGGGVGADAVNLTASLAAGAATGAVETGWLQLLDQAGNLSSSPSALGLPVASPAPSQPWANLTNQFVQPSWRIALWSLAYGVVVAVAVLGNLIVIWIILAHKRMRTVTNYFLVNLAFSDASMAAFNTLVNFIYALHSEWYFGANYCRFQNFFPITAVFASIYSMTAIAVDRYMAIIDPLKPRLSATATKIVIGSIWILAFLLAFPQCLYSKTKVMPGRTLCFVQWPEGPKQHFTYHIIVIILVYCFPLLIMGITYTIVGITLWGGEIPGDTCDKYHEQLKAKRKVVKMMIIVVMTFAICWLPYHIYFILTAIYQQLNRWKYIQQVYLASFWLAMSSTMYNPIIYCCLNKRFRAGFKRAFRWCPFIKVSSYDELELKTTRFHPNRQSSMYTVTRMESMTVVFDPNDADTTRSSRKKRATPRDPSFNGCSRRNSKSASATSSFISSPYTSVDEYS

Chain of human NK(1) receptor (P25103 whole entry): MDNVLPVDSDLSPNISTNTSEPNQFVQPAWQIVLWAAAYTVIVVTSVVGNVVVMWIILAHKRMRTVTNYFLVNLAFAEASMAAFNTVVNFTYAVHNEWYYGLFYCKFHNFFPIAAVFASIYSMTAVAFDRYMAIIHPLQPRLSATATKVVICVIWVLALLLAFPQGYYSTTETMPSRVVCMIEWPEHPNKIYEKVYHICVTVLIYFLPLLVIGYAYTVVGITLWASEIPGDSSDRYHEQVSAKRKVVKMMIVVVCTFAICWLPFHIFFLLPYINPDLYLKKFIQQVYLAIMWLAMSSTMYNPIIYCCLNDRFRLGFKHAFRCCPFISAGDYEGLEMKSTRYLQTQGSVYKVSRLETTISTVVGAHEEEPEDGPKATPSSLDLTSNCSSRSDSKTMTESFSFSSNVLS

What does the source list for `OCCN(CCO)c1nc(N2CCCCC2)c2nc(N(CCO)CCO)nc(N3CCCCC3)c2n1` [Dipyridamole]?
plasma level [1]: about 0.4 microgram/ml; plasma level (concentration) [1]: ~800 nM

Which safety in humans [2] does the source give for `NC(=O)c1ncn([C@@H]2O[C@H](CO)[C@@H](O)[C@H]2O)c1N` [Acadesine, 5-amino-4-imidazole carboxamide ribonucleoside] here?
Its safety in humans is “safe”.

For `Nc1ncnc2c1ncn2[C@@H]1O[C@H](CO)[C@@H](O)[C@H]1O` [adenosine, 6-amino-9-β-D-ribofuranosyl-9H-purine], which “half life in the blood” value is on record?
Its value is “about 10 seconds”.

Which results are given for `Cc1cccc(C)c1NC(=O)C[C@H]1CCN(C(=O)c2cc(C(F)(F)F)cc(C(F)(F)F)c2)[C@@H](Cc2ccccc2)C1.O=C(O)C[C@H](O)C(=O)O` (relative stereo) [R116301, (2R-trans)-4-[1-[3,5-bis(trifluoromethyl)benzoyl]-2-(phenylmethyl)-4-piperidinyl]-N-(2,6-dimethylphenyl)-1-acetamide(S)-Hydroxybutanedioate]?
Ki (human NK(1) receptor): 0.45 nM; selectivity toward NK(2) receptor (NK(2) receptor): over 200 fold; selectivity toward NK(3) receptor (NK(3) receptor): over 200 fold
